Read-outs that look alike come from different tables or passages of the source.
Tests used:
[1] = system: rabbit papillary muscle; test: Electrophysiological activity in isolated, perfused rabbit cardiac tissue (effective refractory period); parameters: species or system New Zealand White rabbits; settings: drug concentration of 10^-5M; for activation at 10 µM: Oryctolagus cuniculus
Description: According to Scheme 1, in Step I, (4-methanesulfonylamino)-γ-oxobenzenebutanoic acid (II, prepared as described in EP 164 865) is convened to the N-ethylamide (III). Standard amide forming reagents such as dicyclohexylcarbodiimide or preferably isobutyl chloroformate can be used for this purpose. In Step II the ketone of III is reduced with the chiral reagent (-)-B-chlorodiisopinocamphenylborane in tetrahydrofuran. The reaction is carried out below 0°C and preferably at -25 to -35°C. A nonaqueous work up is used to facilitate isolation of the water soluble product. The (S)-(-) enantiomer of the chiral alcohol is obtained. Purification of this alcohol by recrystallization from acetonitrile, methanol, ethanol, tert-butyl methyl ether or mixtures thereof gives IV with high enantiomeric purity. In Step III the amide of IV is reduced with sodium bis-(2-methoxyethoxy)aluminum hydride in tetrahydrofuran at 24°C. A neutral nonaqueous work up is employed to facilitate isolation of the water soluble product (V). Alkylation of V with appropriately substituted alkyl bromides (R3CH2Br) to give the compounds (I) of this invention is accomplished in Step IV. The preferred conditions for this reaction employ acetonitrile as solvent and the weakly basic sodium bicarbonate to neutralize the hydrogen bromide generated by the reaction. The reaction is usually carried out at the reflux temperature (81°C). [drawing 2] The Formula I compounds were evaluated for electrophysiological activity in an isolated, perfused rabbit cardiac tissue system. The method used was as follows:
New Zealand White rabbits of either sex (1.5-2.0 kg) were anesthetized and their hearts removed. The heart was immersed in ice cold perfusate while the right atria (RA), papillary muscles (PAP), and right ventricular muscle strips (RV) were isolated. The perfusate was continuously oxygenated with 95% oxygen and 5% carbon dioxide and contained the following in mM concentrations: NaCI 118.0; KCl 5.4; NaHCO3 25.0; MgCl2 1.2: KH2PO4 1.0; CaCl2 2.4; glucose […] and pyruvic acid 2.0. During hypoxic conditions the perfusate was exposed to a mixture of 83% nitrogen, 10% carbon dioxide and 7% oxygen. The pH during normoxia was approximately 7.4 and dropped to approximately 7.2 during hypoxic conditions.
The tissues were individually mounted on a plexiglass holder containing platinum stimulating electrodes and suspended in a 100 ml bath maintained at 30°C by a circulating heat pump. All tissues were attached by silk suture to a force-displacement transducer and a tissue-dependent preload of 500-1000 mg was applied. RA were allowed to contract spontaneously. RV and PAP were stimulated at 2X threshold with 4 msec rectangular pulses at a frequency of 1 and 3 Hz. (Effective refractory period measurements percent increment over control are ERPI and ERP3, conduction time measurements are CT1 and CT3). Between measurements those tissues were stimulated at a resting pace of 2 Hz. Each tissue served as its own baseline control and was allowed an equilibration period of two hours prior to experiments. During this period the perfusate was changed every 10-15 minutes.
Working solutions of the drugs were prepared by dissolving the drugs in distilled water and one drop of NaOH/ml to aid in dissolution (pH 9.4).
Measurements were made on each set of tissues after exposure to 10^-7, 10^-6, or 10^-5M drug for 15 minutes; and 10^-5M drug under hypoxic conditions for 15 minutes.
Automaticity (RATE), force of contraction (FOC) and threshold were measured directly on a polygraph. The ERP of cardiac tissues by definition is the longest coupling interval between the basic drive (S1) and the premature impulse (S2) that fails to propagate through the tissue. The S2 stimulus was introduced after every eighth Sl which allowed time for stabilization of refractoriness. Refractory period measurements were made via a digital timing circuit. […]

[2] = system: methoxamine treated rabbits; test: Early after depolarizations (EAD) and polymorphic ventricular tachycardia (PVT) in methoxamine treated anesthetized rabbits; assay type: in vivo, New Zealand White rabbits; settings: for EAD: Magnitude of the maximum early after depolarization amplitude as a percent of the monophasic action potential amplitude (APA) / MAPD90: Maximum increase in the ventricular monophasic action potential duration from the methoxamine infusion baseline, measured at 90% repolarization / PVT: Ratio of the number of animals that developed polymorphic ventricular tachycardia to the total number of animals evaluated / QTc: Maximum increase in QTc interval from the methoxamine infusion baseline: continuous intravenous infusion over 1 hour, methoxamine 10 µg/kg/minute
Description: The Formula I compounds were evaluated for their ability to produce early after depolarizations (EAD) and polymorphic ventricular tachycardia (PVT) in methoxamine treated rabbits. The method used was as follows:
Male New Zealand White rabbits (2.5 - 3.5 kg,) were pretreated with subcutaneous morphine sulfate (5 mg/kg) 30 minutes prior to anesthesia. Anesthesia was induced by infusion of α-chloralose (90 - 120 mg/kg) through a marginal ear vein over a period of 20 to 30 minutes. A tracheotomy was performed and the rabbit was respirated with room air (5 - 6 cc/kg) using a small animal ventilator (Columbus Instruments, Columbus, OH). Respiration rate, and tidal volume were adjusted, and supplemental oxygen administered to maintain arterial blood gases and pH within normal physiologic ranges. Catheters were placed in a jugular vein and carotid artery for administration of drugs, and measurement of arterial blood pressure, respectively. A 4 French monophasic action potential catheter was introduced through a jugular vein for monitoring of right ventricular monophasic action potential duration which was measured at 90% repolarization (MAPD90), A lead II ECG and arterial blood pressure were monitored throughout the experiments.
All records were obtained on a multichannel recorder (Gould ES 2000, Cleveland, OH) and experiments were continuously recorded on FM magnetic tape (TEAC 501, Montebello, CA) for subsequent playback and analysis.
Following experimental preparation, the rabbits were allowed to equilibrate for 10 minutes before baseline measurements of heart rate, aortic blood pressure, and QTc interval were made. During the equilibration period, monophasic action potentials were monitored and the catheter adjusted to produce action potentials with a stable amplitude. Following baseline measurements, the α1 agonist methoxamine was infused at a rate of 10 µg/kg/minute at an infusion volume of 12.0 ml/hr. After 15 minutes of methoxamine administration, intravenous infusion of saline (vehicle control) or a class III agent was begun. All agents were administered as a continuous infusion over a 1 hour period. Measurement of heart rate, aortic blood pressure. QTc interval (as defined below), and MAPD90 were repeated at several time points during drug administration to provide dose-response relationships. QTc and MAPD90 were also monitored to insure that maximal class III effects on these parameters had been achieved.
Total accumulated dose at the first incidence of PVT was also measured. Repolarization arrhythmias were characterized as early after depolarizations and extrasystoles during repolarization which produced extrasystoles in lead II ECG. PVT was considered to have occurred if 3 or more closely coupled repetitive extrasystoles with a twisting or torsioning QRS morphology were observed.
QT intervals were corrected for heart rate changes using the formula QTc = QT/square root R-R interval. EADs were compared between treatment groups at stable monophasic action potential amplitudes (APA) and are reported as a percent of the APA.
Examples of Formula I compounds evaluated in this manner are collected in Table II. A measure of Class III antiarrhythmic activity is indicated by an increase in QTc and MAPD90. The proarrhythmic potential is indicated by the incidence and magnitude of the EADs and by the ratio of the incidence of PVT to the total number of animals tested. The corresponding data for ibutilide, a compound of U.S. Patent 5,155,268, and the racemc forms Examples (R.S) (compounds of PCT WO 91/01299) are shown for comparison.

[3] = value in parentheses in EAD column
[4] = pacing rate of 1 Hz, read-out: ERP1: percent increase in the effective refractory period over control values
[5] = pacing rate of 3 Hz, read-out: ERP3: percent increase in the effective refractory period over control values

| Compound | ERP1: percent increase in the effective refractory period over control values ([1]; pacing rate of 1 Hz) | ERP3: percent increase in the effective refractory period over control values ([1]; pacing rate of 3 Hz) | EAD: Magnitude of the maximum early after depolarization amplitude as a percent of the monophasic action potential amplitude (APA) [2] | MAPD90: Maximum increase in the ventricular monophasic action potential duration from the methoxamine infusion baseline, measured at 90% repolarization [2] | PVT: Ratio of the number of animals that developed polymorphic ventricular tachycardia to the total number of animals evaluated [2] | QTc: Maximum increase in QTc interval from the methoxamine infusion baseline [2] | Total accumulated dose of test compound when the maximum EAD was measured [2, 3] | Total accumulated dose at the first incidence of PVT ([2]; value in parentheses in PVT) | activation at 10 µM [1, 4] | activation at 10 µM [1, 5] | Total accumulated dose at the first incidence of PVT ([2]; rabbit, in vivo) | Total accumulated dose of test compound when the maximum EAD was measured ([2]; rabbit, in vivo) |
| --- | --- | --- | --- | --- | --- | --- | --- | --- | --- | --- | --- | --- |
| (S)-(-)-N-[4-[4-[Ethyl(7-fluoroheptyl)amino]-1-hydroxybutyl]phenyl] methanesulfonamide, (E)-2-Butenedioate (2:1 salt) [Example 1] | 43.5% | 26.1% | 0% | +70 m sec | 0/16 | +112 m sec |  |  |  |  |  |  |
| CCN(CCCCCCCF)CCCC(O)c1ccc(NS(C)(=O)=O)cc1 (racemic) [(R,S) 1] |  |  | 52% | +128 m sec | 1/6 | +143 m sec | 0.5 mg/kg | 2 mg/kg |  |  |  |  |
| (S)-(-)-N-[4-[4-[Ethyl(6-fluoroheptyl)amino]-1-hydroxybutyl]phenyl]methanesulfonamide, (E)-2-Butenedioate (2:1 salt) [Example 2] | 30.7% | 8.7% | 0% | +88 m sec | 0/16 | +119 m sec |  |  |  |  |  |  |
| CCN(CCCCCC(C)(C)F)CCC[C@H](O)c1ccc(NS(C)(=O)=O)cc1 [Example 3, (S)-(-)-N-[4-[4-[Ethyl(6-fluoro-6-methylheptyl)amino]-1-hydroxybutyl]phenyl]-methanesulfonamide] |  |  | 0% | +75 m sec | 0/16 | +82 m sec |  |  | 21.4% | 25.4% |  |  |
| CCN(CCCCCC(C)(C)F)CCCC(O)c1ccc(NS(C)(=O)=O)cc1 (racemic) [(R,S) 3] |  |  | 35% | +96 m sec | 1/6 | +136 m sec | 0.25 mg/kg | 0.2 mg/kg |  |  |  |  |
| CCN(CCCCCC(C)F)CCCC(O)c1ccc(NS(C)(=O)=O)cc1 (racemic) [(R,S) 2] |  |  | 63% | +141 m sec | 3/6 | +166 m sec | 1 mg/kg | 0.2 mg/kg |  |  |  |  |
| CCCCCCCN(CC)CCCC(O)c1ccc(NS(C)(=O)=O)cc1 (stereo not drawn) [Ibutilide, ibutilide] |  |  |  | +114 m sec |  | +95 m sec |  |  | 18% | 15.8% | 1 mg/kg | 4 mg/kg |
